{"source": "patent US20190134069A1", "about": "“USE OF THYROID BETA-AGONISTS” (priority 2016, published 2019)", "key": {"ABCD1−/− mice [1]": {"system": "ABCD1−/− mice", "test": "Whole blood VLCFA-LPC levels in in vivo model of X-ALD", "settings": "for Mean blood C26:0-LPC level: once daily IP", "description": "(§1) Male ABCD1−/− mice were developed using the Taconic 129SvEv background strain. Animals were housed 3-4/cage under a 12-hour lighting cycle (7 AM-7 PM light) and controlled temperature (22° C.) in the rodent facility. They were fed standard mouse chow and had access to drinking water ad libitum. Mice were between 2 and 3 months of age at the beginning of each study.\n(§2) Mice were injected once daily intraperitoneal with either drug or vehicle. For blood collection, ˜50 μL of blood was obtained by facial vein puncture using a sterile lancet. Blood was collected in a 1.5 ml microcentrifuge tube containing dried dipotassium EDTA and mixed by gentle inversion at least ten times before storing at −20° C. Blood was obtained in this manner following two, four, and six weeks of treatment. Following blood collection at six weeks, animals were sacrificed by cervical dislocation. Additional blood for preparation of plasma was obtained via cardiac puncture, and blood placed in Microtainer tubes. Brain, spinal cord, adrenal glands, testis, and liver were excised and snap frozen in liquid nitrogen for future analyses."}, "ABCD1−/− mice [2]": {"system": "ABCD1−/− mice", "test": "Plasma VLCFA-LPC levels in in vivo model of X-ALD", "description": "as §1, §2\nDuring the second cohort study, blood was obtained as described in the Methods section. At the six week time point sufficient blood was collected to permit plasma VLCFA analyses at weeks two, four and six. Plasma is considered by many to be a more reliable measurement of VLCFA levels, because of reduced analytical interference from other analytes, as well as reduced variability of the measurements."}, "[3]": {"system": "X-ALD fibroblast cell lines", "test": "Cell health (proliferation, morphology) of X-ALD fibroblasts incubated with compounds", "format": "cell-based, Human", "settings": "for cell survival (toxicity): 100 μM, both X-ALD cell lines, within 24 hours; for cell health judged by proliferation and morphology: after 72 hours", "description": "(§3) Human skin fibroblasts were obtained from X-ALD patients through the Neurology Outpatient Clinic of the Academic Medical Center. Written informed consent was received from each patient. X-ALD diagnosis was confirmed by VLCFA and ABCD1 mutation analysis. Control fibroblasts were obtained from male anonymous volunteers with written informed consent. Fibroblasts were cultured in Dulbecco's modified Eagle's medium (DMEM) with L-glutamine and 4.5 g/L glucose, supplemented with 10% fetal calf serum, 2.5 mM HEPES, 100 U/ml penicillin and 100 U/ml streptomycin. Cells were cultured at 37° C. in a humidified 5% CO2 atmosphere. All fibroblast cell lines used were tested routinely for mycoplasma. All tests were negative.\n10 mM stock solutions in DMSO were prepared by weighing the amount of compound (1 and 3 and their respective active metabolites, 2 and 4) as indicated in Table 2. Stock solutions were stored at room temperature in the dark. For each incubation, the amount of tissue culture medium needed was calculated and a stock solution of tissue culture medium with the final concentration of the to-be-tested compound was prepared. Tissue culture medium was removed from the cells, cells were washed once with PBS and the tissue culture medium with the compounds was added. If an experiment lasted longer than three days, the tissue culture medium and compounds were refreshed (using a fresh preparation) after three days until the end of the experiment.\nTwo different X-ALD fibroblast cell lines were incubated in duplicate with four compounds at three dosages as highlighted in Table 3.\n4 X-ALD cell lines were incubated with 10 μM of 4 compounds 1, 2, 3, and 4. The effect of treatment on ABCD2 expression was analyzed at day 3 and day 10. For the 10 day incubation, tissue culture medium and compounds were refreshed at day 3 and day 6."}, "X-ALD cell lines [4]": {"system": "X-ALD cell lines", "test": "D3-C22:0 (VLCFA) beta-oxidation in intact cells", "format": "cell-based, Human", "settings": "10 day treatment, 5 X-ALD cell lines", "description": "as §3\nPeroxisomal beta-oxidation activity was measured essentially as described by incubating cells with 30 μM deuterium-labeled C22:0 (D3-C22:0) (Kemp et al., Clinical Chemistry 50: 1824-1826 (2004)). Cells were seeded at approximately 40% confluency in T75 flasks in DMEM. […] At the end of the experiment cells were harvested and VLCFA analyzed as described (Valianpour et al., Molecular Genetics and Metabolism, 79: 189-196 (2003)).\nVLCFA were analyzed by electrospray ionization mass spectrometry (ESI-MS) as described (Valianpour et al., Molecular Genetics and Metabolism, 79: 189-196 (2003)). […]"}, "X-ALD cell lines [5]": {"system": "X-ALD cell lines", "test": "D3-C26:0 de novo synthesis from D3-C22:0 in intact cells", "format": "cell-based, Human", "settings": "10 day treatment, 5 X-ALD cell lines", "description": "as §3\nThe effect of treatment on D3-C26:0 synthesis in intact cells. The effect of certain compounds of the invention on the synthesis of D3-C26:0 from D3-C22:0 was measured in cultured skin fibroblasts from controls and X-ALD patients. Cells were seeded at approximately 40% confluency in T75 flasks in DMEM. The next day, medium was replaced with medium containing 30 μM D3-C22:0 and the assayed compounds at their final concentration. […] Each 72 h, the tissue culture medium and compounds was refreshed. At the end of the experiment cells were harvested and VLCFA analyzed as described (Valianpour et al., Molecular Genetics and Metabolism, 79: 189-196 (2003)).\nVLCFA were analyzed by electrospray ionization mass spectrometry (ESI-MS) as described (Valianpour et al., Molecular Genetics and Metabolism, 79: 189-196 (2003)).\n5 different X-ALD cell lines were incubated for 6 days with compounds 1, 2, 3, and 4 at 10 μM, 5 mM 4PBA (sodium 4-phenylbutyrate), or 0.1 μM sobetirome. On Day 6, 30 μM D3C22:0 was added to assess the effect of treatment on beta-oxidation and de novo D3C26:0 synthesis. 6 untreated control cells as well as 5 different untreated X-ALD cells were included to allow assessment of the treatment effect. The total set consisted of 41 experiments"}, "[6]": {"settings": "second cohort, week 6, p<0.0001"}}}
{"compound": "Cc1cc(OCP(=O)(OCOC(=O)C(C)(C)C)OCOC(=O)C(C)(C)C)cc(C)c1Cc1ccc(O)c(Cc2ccccc2)c1", "note": "[Compound 3]", "values": [{"measurement": "reduction in whole blood C26:0-LPC levels relative to vehicle controls", "setting": "ABCD1−/− mice [1]; initial cohort, after six week treatment, p<0.0001", "result": 40, "unit": "%"}, {"measurement": "Mean blood C26:0-LPC level", "setting": "ABCD1−/− mice [1]; initial cohort, week 2", "result": 0.262, "unit": "µM"}, {"measurement": "Mean blood C26:0-LPC level", "setting": "ABCD1−/− mice [1]; initial cohort, week 4", "result": 0.276, "unit": "µM"}, {"measurement": "Mean blood C26:0-LPC level", "setting": "ABCD1−/− mice [1]; initial cohort, week 6", "result": 0.356, "unit": "µM"}, {"measurement": "Difference in Mean Change from Baseline, blood C26:0-LPC", "setting": "ABCD1−/− mice [1]; initial cohort, week 2", "result": -0.052, "unit": "µM"}, {"measurement": "% Difference versus Vehicle, blood C26:0-LPC", "setting": "ABCD1−/− mice [1]; initial cohort, week 2, p NS", "result": 0, "unit": "%"}, {"measurement": "Difference in Mean Change from Baseline, blood C26:0-LPC", "setting": "ABCD1−/− mice [1]; initial cohort, week 4", "result": -0.081, "unit": "µM"}, {"measurement": "% Difference versus Vehicle, blood C26:0-LPC", "setting": "ABCD1−/− mice [1]; initial cohort, week 4, p NS", "result": "−11", "unit": "%"}, {"measurement": "Difference in Mean Change from Baseline, blood C26:0-LPC", "setting": "ABCD1−/− mice [1]; initial cohort, week 6", "result": -0.188, "unit": "µM"}, {"measurement": "% Difference versus Vehicle, blood C26:0-LPC", "setting": "ABCD1−/− mice [1]; initial cohort, week 6, p<0.0001", "result": "−40", "unit": "%"}, {"measurement": "reduction in whole blood C26:0-LPC levels (change from baseline)", "setting": "ABCD1−/− mice [1]; second cohort, daily IP, six weeks of treatment, FIG. 8", "result": "approximately 0.11 μM"}, {"measurement": "Least Squares Mean Change from Baseline Whole Blood C26:0-LPC", "setting": "ABCD1−/− mice [1]; second cohort, week 2, p NS versus vehicle", "result": -0.021, "unit": "µM"}, {"measurement": "Least Squares Mean Change from Baseline Whole Blood C26:0-LPC", "setting": "ABCD1−/− mice [1]; second cohort, week 4, p<0.01 versus vehicle", "result": -0.096, "unit": "µM"}, {"measurement": "Least Squares Mean Change from Baseline Whole Blood C26:0-LPC", "setting": "ABCD1−/− mice [1]; second cohort, week 6, p<0.005 versus vehicle", "result": -0.12, "unit": "µM"}, {"measurement": "reduction in C26:0-LPC relative to vehicle-treated animals", "setting": "ABCD1−/− mice [1]; second cohort, whole blood, six weeks, p<0.005", "result": 52, "unit": "%"}, {"measurement": "C20:0-, C22:0-, and C24:0-LPC levels", "setting": "ABCD1−/− mice [2]; after six weeks of treatment", "result": "significant reductions"}, {"measurement": "Mean plasma C20:0-LPC level", "setting": "ABCD1−/− mice [2]; second cohort, week 6", "result": 0.76, "unit": "µM"}, {"measurement": "Mean plasma C22:0-LPC level", "setting": "ABCD1−/− mice [2]; second cohort, week 6", "result": 0.20, "unit": "µM"}, {"measurement": "Mean plasma C24:0-LPC level", "setting": "ABCD1−/− mice [2]; second cohort, week 6", "result": 1.14, "unit": "µM"}, {"measurement": "Mean plasma C26:0-LPC level", "setting": "ABCD1−/− mice [2]; second cohort, week 6", "result": 0.20, "unit": "µM"}, {"measurement": "% Difference vs. Vehicle, plasma C20:0-LPC", "setting": "ABCD1−/− mice [2]; [6]", "result": "−54", "unit": "%"}, {"measurement": "% Difference vs. Vehicle, plasma C22:0-LPC", "setting": "ABCD1−/− mice [2]; [6]", "result": "−43", "unit": "%"}, {"measurement": "% Difference vs. Vehicle, plasma C26:0-LPC", "setting": "ABCD1−/− mice [2]; [6]", "result": "−29", "unit": "%"}, {"measurement": "% Difference vs. Vehicle, plasma C24:0-LPC", "setting": "ABCD1−/− mice [2]; second cohort, week 6, p<0.005", "result": "−21", "unit": "%"}, {"measurement": "cell survival (toxicity)", "setting": "[3]", "result": "dead"}, {"measurement": "cell health judged by proliferation and morphology", "setting": "[3]; 0.1 or 10 μM", "result": "looked healthy"}]}
{"compound": "O=C([O-])CCCc1ccccc1.[Na+]", "note": "[Compound 4PBA, sodium 4-phenylbutyrate]", "values": [{"measurement": "VLCFA beta-oxidation restored", "setting": "X-ALD cell lines [4]; 5 mM", "result": "~50 % of controls"}, {"measurement": "VLCFA (D3C26:0) de novo synthesis", "setting": "X-ALD cell lines [5]; 5 mM", "result": "near normal levels"}]}
{"compound": "Cc1cc(OC[P@@]2(=O)OCC[C@@H](c3cccc(Cl)c3)O2)cc(C)c1Cc1ccc(O)c(C(C)C)c1", "note": "[Compound 1]", "values": [{"measurement": "reduction in D3C26:0 de novo synthesis", "setting": "X-ALD cell lines [5]; 10 μM", "result": "~40", "unit": "%"}, {"measurement": "cell survival (toxicity)", "setting": "[3]", "result": "dead"}, {"measurement": "cell health judged by proliferation and morphology", "setting": "[3]; 0.1 or 10 μM", "result": "looked healthy"}]}
{"compound": "Cc1cc(OCP(=O)(O)O)cc(C)c1Cc1ccc(O)c(Cc2ccccc2)c1", "note": "[Compound 4]", "values": [{"measurement": "cell health judged by proliferation and morphology", "setting": "[3]; 0.1, 1 or 10 μM", "result": "looked healthy"}]}
{"compound": "Cc1cc(OCP(=O)(O)O)cc(C)c1Cc1ccc(O)c(C(C)C)c1", "note": "[Compound 2]", "values": [{"measurement": "cell health judged by proliferation and morphology", "setting": "[3]; 0.1, 1 or 10 μM", "result": "looked healthy"}]}
{"compound": "Cc1cc(OCC(=O)O)cc(C)c1Cc1ccc(O)c(C(C)C)c1", "note": "[sobetirome]", "values": [{"measurement": "effect on VLCFA beta-oxidation", "setting": "X-ALD cell lines [4]; 0.1 μM", "result": "did not show any beneficial effect"}, {"measurement": "effect on VLCFA de novo synthesis", "setting": "X-ALD cell lines [5]; 0.1 μM", "result": "did not show any beneficial effect"}]}
